From patent publication US4666897A, “Inhibition of mammalian collagenolytic enzymes by tetracyclines” (Research Foundation of State University, priority 1983, dated 1987)

Tests used:
[1] = target: T1, rat PMNL collagenolytic activity (PMNL collagenase) (Rattus norvegicus, UniProt O88766); assay: Rat PMNL collagenolytic activity in vitro (14C-collagen gel lysis); type: biochemical; conditions: for Collagenolytic Activity: % ^14 C-collagen gel lyzed / effect on PMNL collagenolytic activity, in words: Table 2; for Collagenolytic Activity: % ^14 C-collagen gel lyzed: PMNL extract (30 × 10^6 PMNLs per ml) + 20 ug/ml, control extract 39.0
T1 construct: An extract of PMNLs was prepared; from tissue; host or cells: extract of peritoneal exudate polymorphonuclear leucocytes of non-diabetic rats, elicited with glycogen
T1 sequence (O88766 102-466): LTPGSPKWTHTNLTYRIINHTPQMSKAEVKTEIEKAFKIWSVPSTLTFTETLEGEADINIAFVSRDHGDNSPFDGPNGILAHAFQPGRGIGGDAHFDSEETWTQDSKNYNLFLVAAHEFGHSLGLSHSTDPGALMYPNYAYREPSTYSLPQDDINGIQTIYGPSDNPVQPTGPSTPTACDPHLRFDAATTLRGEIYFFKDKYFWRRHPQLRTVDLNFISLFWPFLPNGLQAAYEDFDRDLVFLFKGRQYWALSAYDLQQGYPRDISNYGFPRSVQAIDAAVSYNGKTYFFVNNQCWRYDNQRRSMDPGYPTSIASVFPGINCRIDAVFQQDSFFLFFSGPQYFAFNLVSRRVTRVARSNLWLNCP
Procedure: To test the effect of physiologic levels of minocycline (the concentration in human serum, during a therapeutic regimen, is approximately 2 ug/ml; that in the gingival crevicular fluid is 4-5 times greater; Ciancio, et. al., 1980, J. Periodontol., 51, 531-534) on mammalian collagenolytic activity in vitro, peritonealexudate polymorphomuclear leucocytes (PMNLs) were collected from 15 mole (non-diabetic) rats 4 hours after I.P. injection of 0.15% glycogen. An extract of PMNLs was prepared, 250 μl aliquots of this extract were incubated with ^14 C-glycine labeled collagen fibrils for 14 hours at 35° C. (in the presence or absence of minocycline, or EDTA, or additional CaCl2), and collagenolytic activity was measured as described by Nicoll, et al., (Experientia., 37, 315-317).
The techniques used to measure the collagenolytic enzyme activity of gingival tissue in culture, and in polymorphonuclear leucocytes (PMNLs), are those described by Golub, et. al., (J. Dent. Res., 57, 520-525 (197)8) and Nicoll, et. al., (Experimentia, 37, 315-317, (1981)) with minor modifications.

[2] = tested on: fetal rat bones (radii and ulnae) in organ culture; assay: PTH-induced bone resorption in organ culture (45calcium release); type: cell-based; conditions: for effect on PTH-enhanced bone resorption, in words: concentrations 0.2-300 μg/ml
Procedure: The technique used to assess bone resorption is based on monitoring the release of radioactive calcium, previously incorporated by embryonic bones in vivo, during organ culture. Pregnant Sprague-Dawley rats were injected subcutaneously with 200 μCi of ^45 calcium chloride on the 18th day of gestation. The following day, the animals were killed, the fetuses removed, and the radii and ulnae dissected under aseptic conditions. […] The bones were then randomly distributed and each bone, either a radius or ulna, was incubated in 0.5 ml of culture media alone or in a media containing parathyroid hormone (PTH: human synthetic 1-34 peptide, Beckman Instruments, Inc., Palo Alto, California) added in a final concentration of 1.0 μg/ml; the experimental bones were incubated in the PTH containing medium to which was added different concentrations (0.2-300 μg/ml) of the antibiotics to be tested. The bones were cultured for 5 days, with the media being changed after day 2, and the incubation terminated. The bones were decalcified in 0.2 ml of 5% trichloroacetic acid and the ^45 calcium content of the residual bones and of the culture media was measured as described previously. (Werner and Raisz, Endocrinology, 90, 752 (1972 ) and Gomes, et. al., Calc. Tiss. Res., 19, 285 (1976)). The ^45 calcium released into the media was calculated as a percentage of the total radioactive calcium measured in the bones.

[3] = tested on: GCF collagenase and gingival disease in diabetic twins; assay: Human gingival crevicular fluid (GCF) study, diabetic twin brothers; type: in vivo; conditions: 7 days of treatment
Procedure: In a separate study involving humans, gingival crevicular fluid (GCF) samples were collected on filter paper strips inserted into 8 interproximal pockets of selected teeth in the maxillary arch of two twin brothers with juvenile-onset (insulin-dependent) diabetes mellitus. Fluid volume was immediately determined on a modified Periotron (Model 6000, Harco Electronics Ltd., Winnipeg, Canada); then incubated with 10 μl (^3 H-methyl) collagen (20,675 DPM) and 70 μl buffer (50 mM Tris-HCl, pH 7.8, containing 0.2 M sodium chloride and 5 mM calcium chloride). The GCF samples (or reagent blanks or trypsin controls) were incubated at 27° C. for 18 hours with gentle shaking. The reaction was stopped and undigested collagen precipitated by adding 10 μl 0.1 M phenanthroline in dioxane/water (1:1, v/v), 10 μl of nonradioactive methylated carrier collagen (2 mg/ml) in 50 mM Tris-HCl buffer containing 1M NaCl (pH 7.0), and 100 μl dioxane. After mixing, the radiolabeled collagen degradation products were collected by filtration and counted in a liquid scintillation spectrometer (Golub, et. al., 1976, J. Dent. Res., 55, 1049). Using this technique, the reaction blank (no enzyme or GCF added) released about 10% of the total substrate counts; 2-20 ng bacterial collagenase produced a linear increase in the release of radioactive counts from the ^3 H-collagen substrate (the 20 ng level of enzyme degraded 60% of the collagen substrate); and 50 ng trypsin released less than 1% of the counts above blank values. GCF collagenase activity was expressed as units of equivalent activity of vertebrate collagenase (obtained from New England Nuclear, Cat. No. NEK-016); 1 unit was operationally defined as the amount of enzyme that degrades 1 μg of collagen per hour at 27° C.
Four additional GCF samples were collected from other maxillary pockets of the same diabetic twin brothers on filter paper strips, their volume determined (see above), and collagenolytic activity assessed using the same procedure described above but with a different substrate (10 μl of (^3 H-propionate) collagen, NET-660, New England Nuclear Corp., Boston, Mass., 302,000 DPM).
Half of the 12 GCF samples per subject were activated by pretreatment with 1.04 uM trypsin followed by the addition of a 5-fold molar excess of soybean trypsin inhibitor. Samples were selected to be treated or not treated with trypsin by matching them for Gingival Index (Loe and Silness, Acta. Odont. Scand., 21, 533-551 (1967)), GCF flow, and for pocket depth; the clincal parameters (GI, PD) were measured immediately after GCF collection. All measurements were carried out immediately before antibiotic coverage and after 7 days of treatment with either pencillin G (lg. per day; patient three) or the tetracycline minocycline (200 mg/day; patient one).

[4] = tested on: ^14 C-glycine labeled collagen fibrils; assay: Lysis of 14C-collagen gel by control enzymes (no PMNL extract); type: biochemical; conditions: Table 1, 1 μg enzyme
[5] = penicillin G 1 g per day (P. D.) or minocycline 200 mg/day (K. D.)

## O=C(O)CN(CCN(CC(=O)O)CC(=O)O)CC(=O)O [EDTA]
[1]; Table 1
  effect on PMNL collagenolytic (collagenase) activity, in words: completely inihibited
[1]; Table 1, PMNL extract + 54 mM, control extract 85.5
  Collagenolytic Activity: % ^14 C-collagen gel lysed: 3.1%

## CN(C)[C@@H]1C(=O)C(C(N)=O)=C(O)[C@@]2(O)C(=O)C3=C(O)c4c(O)cccc4[C@@](C)(O)[C@H]3[C@H](O)[C@@H]12 [Terramycin, Oxytetracycline]
[1]
  Collagenolytic Activity: % ^14 C-collagen gel lyzed: 4.4%

## CC1(C)S[C@@H]2[C@H](NC(=O)[C@H](N)c3ccccc3)C(=O)N2[C@H]1C(=O)O [ampicillin]
[1]
  effect on PMNL collagenolytic activity, in words: ineffective
  Collagenolytic Activity: % ^14 C-collagen gel lyzed: 35.7%
[2]; Table 5, PTH + 6 μg/ml
  ^45 Calcium in Fetal Bone Released into Media (%) after 2 days incubation: 52.3 ± 1.9%
  ^45 Calcium in fetal bone Released into media (%) after 5 days incubation: 92.2 ± 2.0%
[2]; Table 5, PTH + 20 μg/ml
  ^45 Calcium in Fetal Bone Released into Media (%) after 2 days incubation: 52.8 ± 1.7%
  ^45 Calcium in fetal bone Released into media (%) after 5 days incubation: 92.6 ± 0.5%
[2]; Table 5, PTH + 40 μg/ml
  ^45 Calcium in Fetal Bone Released into Media (%) after 2 days incubation: 51.9 ± 2.1%
  ^45 Calcium in fetal bone Released into media (%) after 5 days incubation: 94.2 ± 1.1%
[2]; Table 5, PTH + 60 μg/ml
  ^45 Calcium in Fetal Bone Released into Media (%) after 2 days incubation: 50.9 ± 1.7%
  ^45 Calcium in fetal bone Released into media (%) after 5 days incubation: 93.9 ± 0.7%
[2]; Table 5, PTH + 200 μg/ml
  ^45 Calcium in Fetal Bone Released into Media (%) after 2 days incubation: 50.8 ± 1.8%
  ^45 Calcium in fetal bone Released into media (%) after 5 days incubation: 91.4 ± 0.7%
[2]
  effect on PTH-enhanced bone resorption, in words: no detectable effect

## Cc1nnc(SCC2=C(C(=O)O)N3C(=O)[C@@H](NC(=O)Cn4cnnn4)[C@H]3SC2)s1 [cefazolin]
[1]
  effect on PMNL collagenolytic activity, in words: ineffective
  Collagenolytic Activity: % ^14 C-collagen gel lyzed: 50.0%
[2]; Table 5, PTH + 6 μg/ml
  ^45 Calcium in Fetal Bone Released into Media (%) after 2 days incubation: 50.8 ± 1.3%
  ^45 Calcium in fetal bone Released into media (%) after 5 days incubation: 93.1 ± 0.5%
[2]; Table 5, PTH + 20 μg/ml
  ^45 Calcium in Fetal Bone Released into Media (%) after 2 days incubation: 54.2 ± 1.4%
  ^45 Calcium in fetal bone Released into media (%) after 5 days incubation: 93.6 ± 0.4%
[2]; Table 5, PTH + 60 μg/ml
  ^45 Calcium in Fetal Bone Released into Media (%) after 2 days incubation: 54.5 ± 1.2%
  ^45 Calcium in fetal bone Released into media (%) after 5 days incubation: 94.6 ± 1.2%
[2]; Table 5, PTH + 120 μg/ml
  ^45 Calcium in Fetal Bone Released into Media (%) after 2 days incubation: 50.3 ± 3.1%
  ^45 Calcium in fetal bone Released into media (%) after 5 days incubation: 90.2 ± 3.1%
[2]; Table 5, PTH + 200 μg/ml
  ^45 Calcium in Fetal Bone Released into Media (%) after 2 days incubation: 50.9 ± 1.3%
  ^45 Calcium in fetal bone Released into media (%) after 5 days incubation: 92.1 ± 0.6%
[2]
  effect on PTH-enhanced bone resorption, in words: no detectable effect

## C[C@H]1c2cccc(O)c2C(O)=C2C(=O)[C@]3(O)C(O)=C(C(N)=O)C(=O)[C@@H](N(C)C)[C@@H]3[C@@H](O)[C@@H]21 [doxycycline, Doxycycline]
[1]
  Collagenolytic Activity: % ^14 C-collagen gel lyzed: 4.5%
[2]; Table 4, first column, PTH + 0.2 μg/ml
  ^45 Calcium in Fetal Bone Released into Media (%) after 2 days incubation: 56.6 ± 2.0%
[2]; Table 4, first column, PTH + 2.0 μg/ml
  ^45 Calcium in Fetal Bone Released into Media (%) after 2 days incubation: 57.5 ± 2.5%
[2]; Table 4, first column, PTH + 20 μg/ml
  ^45 Calcium in Fetal Bone Released into Media (%) after 2 days incubation: 30.6 ± 1.7%
[2]; Table 4, first column, PTH + 200 μg/ml
  ^45 Calcium in Fetal Bone Released into Media (%) after 2 days incubation: 18.8 ± 1.1%
[2]; Table 4, second column, PTH + 0.2 μg/ml
  ^45 Calcium in Fetal Bone Released into Media (%) after 2 days incubation: 97.1 ± 0.7%
[2]; Table 4, second column, PTH + 2.0 μg/ml
  ^45 Calcium in Fetal Bone Released into Media (%) after 2 days incubation: 93.5 ± 1.7%
[2]; Table 4, second column, PTH + 20 μg/ml
  ^45 Calcium in Fetal Bone Released into Media (%) after 2 days incubation: 35.3 ± 1.6%
[2]; Table 4, second column, PTH + 200 μg/ml
  ^45 Calcium in Fetal Bone Released into Media (%) after 2 days incubation: 28.7 ± 0.8%
[2]
  effect on PTH-enhanced bone resorption, in words: inhibited bone resorption in a dose responsive manner

## CC1(C)S[C@@H]2[C@H](NC(=O)Cc3ccccc3)C(=O)N2[C@H]1C(=O)O [penicillin]
[3]; [5]
  GCF flow: little or no effect
  Gram-positive and Gram-negative organisms in the pockets: reduced the Gram-positive but increased the Gram-negative organisms
  active GCF collagenase: little or no effect
  pocket depth: little or no effect
  total GCF collagenase (after trypsin pretreatment): appeared to increase
[3]; penicillin G 1 g per day (patient three) or minocycline 200 mg/day (patient one)
  Gingival Index (G. I.): little or no effect
[2]
  effect on PTH-enhanced bone resorption, in words: no detectable effect

## [H]/N=C(/N)N[C@H]1[C@H](O)[C@@H](O)[C@H](O[C@@H]2O[C@@H](C)[C@](O)(C=O)[C@H]2O[C@@H]2O[C@@H](CO)[C@H](O)[C@@H](O)[C@@H]2NC)[C@@H](N/C(N)=N\[H])[C@@H]1O [streptomycin]
[2]
  effect on PTH-enhanced bone resorption, in words: no detectable effect

## PTH: parathyroid hormone, human synthetic 1-34 peptide, Beckman Instruments, final concentration 1.0 μg/ml
[2]; PTH 1.0 μg/ml versus culture media alone, Tables 3-5
  increase of the loss of radiolabeled calcium by addition of PTH: 90-160%
[2]; Table 3, PTH alone 1.0 μg/ml, no addition 19.9 ± 1.5
  ^45 Calcium in Fetal Bone Released into Media (%) after 2 days incubation: 46.1 ± 1.9%
[2]; Table 3, PTH alone 1.0 μg/ml, no addition 27.6 ± 1.3
  ^45 Calcium in fetal bone Released into media (%) after 5 days incubation: 73.3 ± 1.3%
[2]; Table 4, PTH alone, no addition 27.1 ± 1.0
  ^45 Calcium in Fetal Bone Released into Media (%) after 2 days incubation: 61.6 ± 1.2%
[2]; Table 4, PTH alone, no addition 50.8 ± 1.8
  ^45 Calcium in Fetal Bone Released into Media (%) after 2 days incubation: 97.9 ± 0.7%
[2]; Table 5, PTH alone, no addition 22.4 ± 0.7
  ^45 Calcium in Fetal Bone Released into Media (%) after 2 days incubation: 51.2 ± 1.4%
[2]; Table 5, PTH alone, no addition 46.7 ± 3.0
  ^45 Calcium in fetal bone Released into media (%) after 5 days incubation: 91.9 ± 1.7%

B1: Trypsin: protease control for non-specific proteolysis of the collagen substrate (protein, UniProt P00760 24-246, looked up)
Serine protease 1: IVGGYTCGANTVPYQVSLNSGYHFCGGSLINSQWVVSAAHCYKSGIQVRLGEDNINVVEGNEQFISASKSIVHPSYNSNTLNNDIMLIKLKSAASLNSRVASISLPTSCASAGTQCLISGWGNTKSSGTSYPDVLKCLKAPILSDSSCKSAYPGQITSNMFCAGYLEGGKDSCQGDSGGPVVCSGKLQGIVSWGSGCAQKNKPGVYTKVCNYVSWIKQTIASN
[4]
  Collagenolytic Activity: % ^14 C-collagen gel lysed: 2.6%
